Test results published in patent US20250333424A1, “ANTIVIRAL COMPOUNDS” (Gilead Sciences, Inc., priority 2024, published 2025).

tested on: monocytic THP1 cells infected with HIV VSV-G pseudotyped GFP-NEF reporter virus; test: cells; type: cell-based; conditions: Human immunodeficiency virus 1, THP-1, 24 h

Compound	EC50
Cc1cc(/C=C/C#N)cc(C)c1Oc1nc(NC23CC(C#N)(C2)C3)nc2c1C1(C)OCC3(CCOCC3)CN1C2=O (stereo not drawn) [Example 200, (E)-3-((4′-(4-(2-cyanovinyl)-2,6-dimethylphenoxy)-4b′-methyl-10′-oxo-2,3,4b′,5,6,10′-hexahydro-6′H,8′H-spiro[pyran-4,7′-pyrimido[5′,4′:3,4]pyrrolo[2,1-b][1,3]oxazin]-2′-yl)amino)bicyclo[1.1.1]pentane-1-carbonitrile]	175 nM
Cc1cc(/C=C/C#N)cc(C)c1Oc1nc(NC23CC(C#N)(C2)C3)nc2c1C1(C)OC[C@@H](F)CN1C2=O (stereo partly drawn) [Example 201, 3-(((7S)-4-(4-((E)-2-cyanovinyl)-2,6-dimethylphenoxy)-7-fluoro-4b-methyl-10-oxo-4b,7,8,10-tetrahydro-6H-pyrimido[5′,4′:3,4]pyrrolo[2,1-b][1,3]oxazin-2-yl)amino)bicyclo[1.1.1]pentane-1-carbonitrile]	88.6 nM
Cc1cc(/C=C/C#N)cc(C)c1Oc1nc(NC23CC(C#N)(C2)C3)nc2c1C1(C)OC[C@H](F)CN1C2=O (stereo partly drawn) [Example 202, 3-(((7R)-4-(4-((E)-2-cyanovinyl)-2,6-dimethylphenoxy)-7-fluoro-4b-methyl-10-oxo-4b,7,8,10-tetrahydro-6H-pyrimido[5′,4′:3,4]pyrrolo[2,1-b][1,3]oxazin-2-yl)amino)bicyclo[1.1.1]pentane-1-carbonitrile]	18.9 nM
COCCN1C(=O)c2nc(NC34CC(C#N)(C3)C4)nc(Oc3c(C)cc(/C=C/C#N)cc3C)c2C1C (stereo not drawn) [Example 203, (E)-3-((4-(4-(2-cyanovinyl)-2,6-dimethylphenoxy)-6-(2-methoxyethyl)-5-methyl-7-oxo-6,7-dihydro-5H-pyrrolo[3,4-d]pyrimidin-2-yl)amino)bicyclo[1.1.1]pentane-1-carbonitrile]	27.5 nM
CCN1C(=O)c2nc(NC34CC(C#N)(C3)C4)nc(Oc3c(C)cc(/C=C/C#N)cc3C)c2C1C (stereo not drawn) [Example 204, (E)-3-((4-(4-(2-cyanovinyl)-2,6-dimethylphenoxy)-6-ethyl-5-methyl-7-oxo-6,7-dihydro-5H-pyrrolo[3,4-d]pyrimidin-2-yl)amino)bicyclo[1.1.1]pentane-1-carbonitrile]	23.4 nM
C=CCN1C(=O)c2nc(NC34CC(C#N)(C3)C4)nc(Oc3c(C)cc(/C=C/C#N)cc3C)c2C1C (stereo not drawn) [Example 205, (E)-3-((6-allyl-4-(4-(2-cyanovinyl)-2,6-dimethylphenoxy)-5-methyl-7-oxo-6,7-dihydro-5H-pyrrolo[3,4-d]pyrimidin-2-yl)amino)bicyclo[1.1.1]pentane-1-carbonitrile]	42.7 nM
Cc1cc(/C=C/C#N)cc(C)c1Oc1nc(NC23CC(C#N)(C2)C3)nc2c1C(C)N(C(C)C)C2=O (stereo not drawn) [Example 206, (E)-3-((4-(4-(2-cyanovinyl)-2,6-dimethylphenoxy)-6-isopropyl-5-methyl-7-oxo-6,7-dihydro-5H-pyrrolo[3,4-d]pyrimidin-2-yl)amino)bicyclo[1.1.1]pentane-1-carbonitrile]	280 nM
Cc1cc(/C=C/C#N)cc(C)c1Oc1nc(NC23CC(C#N)(C2)C3)nc2c1C(C)N(CCC(F)(F)F)C2=O (stereo not drawn) [Example 207, (E)-3-((4-(4-(2-cyanovinyl)-2,6-dimethylphenoxy)-5-methyl-7-oxo-6-(3,3,3-trifluoropropyl)-6,7-dihydro-5H-pyrrolo[3,4-d]pyrimidin-2-yl)amino)bicyclo[1.1.1]pentane-1-carbonitrile]	70.3 nM
Cc1cc(/C=C/C#N)cc(C)c1Oc1nc(NC23CC(C#N)(C2)C3)nc2c1C(C)N(C1COC1)C2=O (stereo not drawn) [Example 208, (E)-3-((4-(4-(2-cyanovinyl)-2,6-dimethylphenoxy)-5-methyl-6-(oxetan-3-yl)-7-oxo-6,7-dihydro-5H-pyrrolo[3,4-d]pyrimidin-2-yl)amino)bicyclo[1.1.1]pentane-1-carbonitrile]	28.8 nM
Cc1cc(/C=C/C#N)cc(C)c1Oc1nc(NC23CC(C#N)(C2)C3)nc2c1C(C)N(CCc1cn(C)cn1)C2=O (stereo not drawn) [Example 209, (E)-3-((4-(4-(2-cyanovinyl)-2,6-dimethylphenoxy)-5-methyl-6-(2-(1-methyl-1H-imidazol-4-yl)ethyl)-7-oxo-6,7-dihydro-5H-pyrrolo[3,4-d]pyrimidin-2-yl)amino)bicyclo[1.1.1]pentane-1-carbonitrile]	57.7 nM
Cc1cc(/C=C/C#N)cc(C)c1Oc1nc(NC23CC(C#N)(C2)C3)nc2c1C(C)N(CC1CC1)C2=O (stereo not drawn) [Example 210, (E)-3-((4-(4-(2-cyanovinyl)-2,6-dimethylphenoxy)-6-(cyclopropylmethyl)-5-methyl-7-oxo-6,7-dihydro-5H-pyrrolo[3,4-d]pyrimidin-2-yl)amino)bicyclo[1.1.1]pentane-1-carbonitrile]	125 nM
Cc1cc(/C=C/C#N)cc(C)c1Oc1nc(NC23CC(C#N)(C2)C3)nc2c1C(C)N(CCc1cnn(C)c1)C2=O (stereo not drawn) [Example 211, (E)-3-((4-(4-(2-cyanovinyl)-2,6-dimethylphenoxy)-5-methyl-6-(2-(1-methyl-1H-pyrazol-4-yl)ethyl)-7-oxo-6,7-dihydro-5H-pyrrolo[3,4-d]pyrimidin-2-yl)amino)bicyclo[1.1.1]pentane-1-carbonitrile]	54.5 nM
Cc1cc(/C=C/C#N)cc(C)c1Oc1nc(NC23CC(C#N)(C2)C3)nc2c1C(C)N(Cc1ccnn1C)C2=O (stereo not drawn) [Example 212, (E)-3-((4-(4-(2-cyanovinyl)-2,6-dimethylphenoxy)-5-methyl-6-((1-methyl-1H-pyrazol-5-yl)methyl)-7-oxo-6,7-dihydro-5H-pyrrolo[3,4-d]pyrimidin-2-yl)amino)bicyclo[1.1.1]pentane-1-carbonitrile]	47.1 nM
Cc1cc(/C=C/C#N)cc(C)c1Oc1nc(NC23CC(C#N)(C2)C3)nc2c1C(C)N(Cc1nccn1C)C2=O (stereo not drawn) [Example 213, (E)-3-((4-(4-(2-cyanovinyl)-2,6-dimethylphenoxy)-5-methyl-6-((1-methyl-1H-imidazol-2-yl)methyl)-7-oxo-6,7-dihydro-5H-pyrrolo[3,4-d]pyrimidin-2-yl)amino)bicyclo[1.1.1]pentane-1-carbonitrile]	43.9 nM
Cc1cc(/C=C/C#N)cc(C)c1Oc1nc(NC23CC(C#N)(C2)C3)nc2c1C(C)N(CCN1CCOCC1)C2=O (stereo not drawn) [Example 214, (E)-3-((4-(4-(2-cyanovinyl)-2,6-dimethylphenoxy)-5-methyl-6-(2-morpholinoethyl)-7-oxo-6,7-dihydro-5H-pyrrolo[3,4-d]pyrimidin-2-yl)amino)bicyclo[1.1.1]pentane-1-carbonitrile]	59.1 nM
Cc1cc(/C=C/C#N)cc(C)c1Oc1nc(NC23CC(C#N)(C2)C3)nc2c1C(C)N(C1CCOCC1)C2=O (stereo not drawn) [Example 215, (E)-3-((4-(4-(2-cyanovinyl)-2,6-dimethylphenoxy)-5-methyl-7-oxo-6-(tetrahydro-2H-pyran-4-yl)-6,7-dihydro-5H-pyrrolo[3,4-d]pyrimidin-2-yl)amino)bicyclo[1.1.1]pentane-1-carbonitrile]	109 nM
Cc1cc(/C=C/C#N)cc(C)c1Oc1nc(NC23CC(C#N)(C2)C3)nc2c1C(C)N(C1CCC1)C2=O (stereo not drawn) [Example 216, (E)-3-((4-(4-(2-cyanovinyl)-2,6-dimethylphenoxy)-6-cyclobutyl-5-methyl-7-oxo-6,7-dihydro-5H-pyrrolo[3,4-d]pyrimidin-2-yl)amino)bicyclo[1.1.1]pentane-1-carbonitrile]	77.8 nM
Cc1cc(/C=C/C#N)cc(C)c1Oc1nc(NC23CC(C#N)(C2)C3)nc2c1C(C)N(c1cnn(C(F)(F)F)c1)C2=O (stereo not drawn) [Example 217, (E)-3-((4-(4-(2-cyanovinyl)-2,6-dimethylphenoxy)-5-methyl-7-oxo-6-(1-(trifluoromethyl)-1H-pyrazol-4-yl)-6,7-dihydro-5H-pyrrolo[3,4-d]pyrimidin-2-yl)amino)bicyclo[1.1.1]pentane-1-carbonitrile]	157 nM
CCn1cc(N2C(=O)c3nc(NC45CC(C#N)(C4)C5)nc(Oc4c(C)cc(/C=C/C#N)cc4C)c3C2C)cn1 (stereo not drawn) [Example 218, (E)-3-((4-(4-(2-cyanovinyl)-2,6-dimethylphenoxy)-6-(1-ethyl-1H-pyrazol-4-yl)-5-methyl-7-oxo-6,7-dihydro-5H-pyrrolo[3,4-d]pyrimidin-2-yl)amino)bicyclo[1.1.1]pentane-1-carbonitrile]	47.3 nM
COCCn1cc(N2C(=O)c3nc(NC45CC(C#N)(C4)C5)nc(Oc4c(C)cc(/C=C/C#N)cc4C)c3C2C)cn1 (stereo not drawn) [Example 219, (E)-3-((4-(4-(2-cyanovinyl)-2,6-dimethylphenoxy)-6-(1-(2-methoxyethyl)-1H-pyrazol-4-yl)-5-methyl-7-oxo-6,7-dihydro-5H-pyrrolo[3,4-d]pyrimidin-2-yl)amino)bicyclo[1.1.1]pentane-1-carbonitrile]	40.7 nM
Cc1cc(/C=C/C#N)cc(C)c1Oc1nc(NC23CC(C#N)(C2)C3)nc2c1C(C)N(c1c(C)nn(C)c1C)C2=O (stereo not drawn) [Example 220, (E)-3-((4-(4-(2-cyanovinyl)-2,6-dimethylphenoxy)-5-methyl-7-oxo-6-(1,3,5-trimethyl-1H-pyrazol-4-yl)-6,7-dihydro-5H-pyrrolo[3,4-d]pyrimidin-2-yl)amino)bicyclo[1.1.1]pentane-1-carbonitrile]	155 nM
Cc1cc(/C=C/C#N)cc(C)c1Oc1nc(NC23CC(C#N)(C2)C3)nc2c1C(C)N(c1cnn(C)c1C)C2=O (stereo not drawn) [Example 221, (E)-3-((4-(4-(2-cyanovinyl)-2,6-dimethylphenoxy)-6-(1,5-dimethyl-1H-pyrazol-4-yl)-5-methyl-7-oxo-6,7-dihydro-5H-pyrrolo[3,4-d]pyrimidin-2-yl)amino)bicyclo[1.1.1]pentane-1-carbonitrile]	72.9 nM
Cc1cc(/C=C/C#N)cc(C)c1Oc1nc(NC23CC(C#N)(C2)C3)nc2c1C(C)N(c1cn(C)nc1C)C2=O (stereo not drawn) [Example 222, (E)-3-((4-(4-(2-cyanovinyl)-2,6-dimethylphenoxy)-6-(1,3-dimethyl-1H-pyrazol-4-yl)-5-methyl-7-oxo-6,7-dihydro-5H-pyrrolo[3,4-d]pyrimidin-2-yl)amino)bicyclo[1.1.1]pentane-1-carbonitrile]	70.7 nM
COCn1cc(N2C(=O)c3nc(NC45CC(C#N)(C4)C5)nc(Oc4c(C)cc(/C=C/C#N)cc4C)c3C2C)cn1 (stereo not drawn) [Example 223, (E)-3-((4-(4-(2-cyanovinyl)-2,6-dimethylphenoxy)-6-(1-(methoxymethyl)-1H-pyrazol-4-yl)-5-methyl-7-oxo-6,7-dihydro-5H-pyrrolo[3,4-d]pyrimidin-2-yl)amino)bicyclo[1.1.1]pentane-1-carbonitrile]	38.3 nM
